In patent US20230143612A1 (Arbutus Biopharma Corporation, priority 2020, published 2023):

The compounds below were run against PD-L1 His protein / PD-1 Fc protein (Homo sapiens, UniProt Q9NZQ7) (assay: HTRF Assay (PD-1/PD-L1 interaction)). Settings: PD-L1 His 6 nM, PD-1 Fc 6 nM.
Sequence of PD-L1 His protein / PD-1 Fc protein (Q9NZQ7 19-238 limits assumed): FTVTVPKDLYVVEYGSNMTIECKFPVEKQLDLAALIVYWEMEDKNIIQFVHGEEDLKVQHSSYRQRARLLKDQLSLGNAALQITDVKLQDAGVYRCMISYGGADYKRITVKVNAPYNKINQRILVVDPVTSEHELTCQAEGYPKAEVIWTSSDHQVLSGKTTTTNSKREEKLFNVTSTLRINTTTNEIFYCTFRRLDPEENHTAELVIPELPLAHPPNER
Assay type: binding
Outline: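 HTRF: PD-L1 His (6 nM final), compound (3-fold dilutions, 20 μM to 0.001 μM final) and PD-1 Fc (6 nM final) preincubated 15 min at room temperature. Anti-human IgG-XL665 and anti-6HIS Tb cryptate (mixed at 6.7 nM and 0.35 nM) then added for 1 h at room temperature before reading.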
In the case of `COc1nc(-c2cccc(-c3cccc(-c4ccn5c(=O)c(CNC[C@@H]6CCC(=O)N6)ccc5c4)c3Cl)c2Cl)ccc1CNC[C@@H]1CCC(=O)N1` [Example 85, 8-(2,2′-Dichloro-3′-(6-methoxy-5-(((((S)-5-oxopyrrolidin-2-yl)methyl)amino)methyl)pyridin-2-yl)-[1,1′-biphenyl]-3-yl)-3-(((((S)-5-oxopyrrolidin-2-yl)methyl)amino)methyl)-4H-quinolizin-4-one], the IC50 is reported as 2.5 nM. Compound `COc1nc(-c2cccc(-c3cccc(-c4ccn5c(=O)c(CNC[C@@H]6CCC(=O)N6)cnc5c4)c3Cl)c2Cl)cnc1CNC[C@@H]1CCC(=O)N1` [Example 47, 8-(2,2′-Dichloro-3′-(6-methoxy-5-(((((S)-5-oxopyrrolidin-2-yl)methyl)amino)methyl)pyrazin-2-yl)-[1,1′-biphenyl]-3-yl)-3-(((((S)-5-oxopyrrolidin-2-yl)methyl)amino)methyl)-4H-pyrido[1,2-a]pyrimidin-4-one] has an IC50 of 1.4 nM. For `COc1nc(-c2cccc(-c3cccc(-c4ccn5c(=O)c(CNC[C@@H](O)CC(=O)N(C)C)cnc5c4)c3Cl)c2Cl)cc(F)c1CNC[C@@H]1CCC(=O)N1` [Example 336, (3S)-4-[[8-[2-Chloro-3-[2-chloro-3-[4-fluoro-6-methoxy-5-[[[(2S)-5-oxopyrrolidin-2-yl]methylamino]methyl]-2-pyridyl]phenyl]phenyl]-4-oxo-pyrido[1,2-a]pyrimidin-3-yl]methylamino]-3-hydroxy-N,N-dimethyl-butanamide], the IC50 was 0.1 nM. In the case of `COc1nc(-c2cccc(-c3cccc(-c4ncc5c(CNC[C@@H]6CCC(=O)N6)cn(C)c5n4)c3Cl)c2Cl)ccc1CNC[C@@H]1CCC(=O)N1` [Example 401, (S)-5-((((2-(2,2′-Dichloro-3′-(6-methoxy-5-(((((S)-5-oxopyrrolidin-2-yl)methyl)amino)methyl)pyridin-2-yl)-[1,1′-biphenyl]-3-yl)-7-methyl-7H-pyrrolo[2,3-d]pyrimidin-5-yl)methyl)amino)methyl)pyrrolidin-2-one], the IC50 is reported as 0.1 nM. Work on `COc1nc(-c2cccc(-c3cccc(-c4ccc5c(n4)N(C)CCC5NC[C@@H]4CCC(=O)N4)c3Cl)c2Cl)ccc1CNC[C@@H]1CCC(=O)N1` (single isomer, unassigned) [Example 52] yielded an IC50 of 0.8 nM. `COc1nc(-c2cccc(-c3cccc(-c4cc5c(cn4)CN(CCNC[C@@H]4CCC(=O)N4)C5=O)c3Cl)c2Cl)ccc1CNC[C@@H]1CCC(=O)N1` [Example 454, 6-(2,2′-dichloro-3′-(6-methoxy-5-(((((S)-5-oxopyrrolidin-2-yl)methyl)amino)methyl)pyridin-2-yl)-[1,1′-biphenyl]-3-yl)-2-(2-((((S)-5-oxopyrrolidin-2-yl)methyl)amino)ethyl)-2,3-dihydro-1H-pyrrolo[3,4-c]pyridin-1-one] was tested, and the IC50 was 0.1 nM. Compound `COc1nc(-c2cccc(-c3cccc(-c4ccn5c(=O)c(CNCC6CCCC(=O)N6)cnc5c4)c3Cl)c2Cl)ccc1CNC[C@@H]1CCC(=O)N1` (mixture of isomers) [Example 206, 8-(2,2′-Dichloro-3′-(6-methoxy-5-(((((S)-5-oxopyrrolidin-2-yl)methyl)amino)methyl)pyridin-2-yl)-[1,1′-biphenyl]-3-yl)-3-((((6-oxopiperidin-2-yl)methyl)amino)methyl)-4H-pyrido[1,2-a]pyrimidin-4-one] has an IC50 of 14 nM. Compound `COc1nc(-c2cccc(-c3cccc(-c4ccc(CN5CCCC[C@H]5C(=O)O)c(OC)n4)c3Cl)c2Cl)ccc1CNC[C@@H]1CCC(=O)N1` [Example 494, (S)-1-((6-(2,2′-Dichloro-3′-(6-methoxy-5-(((((S)-5-oxopyrrolidin-2-yl)methyl)amino)-methyl)pyridin-2-yl)-[1,1′-biphenyl]-3-yl)-2-methoxypyridin-3-yl)methyl)piperidine-2-carboxylic acid] has an IC50 of 0.1 nM. `Cc1c(-c2ccn3c(=O)c(CNC[C@@H]4CCC(=O)N4)cnc3c2)cccc1-c1cccc(-c2ccc(CNC[C@@H]3CCC(=O)N3)c(Cl)n2)c1Cl` [Example 50, 8-(2′-Chloro-3′-(6-chloro-5-(((((S)-5-oxopyrrolidin-2-yl)methyl)amino)methyl)pyridin-2-yl)-2-methyl-[1,1′-biphenyl]-3-yl)-3-(((((S)-5-oxopyrrolidin-2-yl)methyl)amino)methyl)-4H-pyrido[1,2-a]pyrimidin-4-one] showed an IC50 of 8.1 nM. Compound `COc1nc(-c2cccc(-c3cccc(-c4ccn5c(=O)c(CNC[C@H]6CNC(=O)C6)cnc5c4)c3Cl)c2Cl)ccc1CNC[C@@H]1CCC(=O)N1` [Example 284, 8-(2,2′-Dichloro-3′-(6-methoxy-5-(((((S)-5-oxopyrrolidin-2-yl)methyl)-amino)methyl)-pyridin-2-yl)-[1,1′-biphenyl]-3-yl)-3-(((((S)-5-oxopyrrolidin-3-yl)methyl)amino)methyl)-4H-pyrido[1,2-a]pyrimidin-4-one] has an IC50 of 0.1 nM. `Cc1c(-c2ccn3c(=O)c(CNCCO)cnc3c2)cccc1-c1cccc(-c2ccn3c(=O)c(CNCCO)cnc3c2)c1C` [Example 15, 8,8′-(2,2′-Dimethyl-[1,1′-biphenyl]-3,3′-diyl)bis(3-(((2-hydroxyethyl)amino)methyl)-4H-pyrido[1,2-a]pyrimidin-4-one)] was tested, and the IC50 was 60 nM. `COc1cc(-c2cccc(-c3cccc(-c4ccc(CNC[C@@H]5CCC(=O)N5)c(OC)n4)c3Cl)c2Cl)cc2c1CN(CCC1(O)CCC1)CC2` [Example 484, (S)-5-((((6-(2,2′-Dichloro-3′-(2-(2-(1-hydroxycyclobutyl)ethyl)-8-methoxy-1,2,3,4-tetrahydroisoquinolin-6-yl)-[1,1′-biphenyl]-3-yl)-2-methoxypyridin-3-yl)methyl)amino)methyl)pyrrolidin-2-one] gave an IC50 of 0.3 nM. Work on `O=C1CC[C@@H](CNCc2cnc3cc(-c4cccc(-c5cccc(-c6cnc7c(CNC[C@@H]8CCC(=O)N8)cnn7c6)c5Cl)c4Cl)ccn3c2=O)N1` [Example 381, 8-(2,2′-dichloro-3′-(3-(((((S)-5-oxopyrrolidin-2-yl)methyl)amino)methyl)pyrazolo[1,5-a]pyrimidin-6-yl)-[1,1′-biphenyl]-3-yl)-3-(((((S)-5-oxopyrrolidin-2-yl)methyl)amino)methyl)-4H-pyrido[1,2-a]pyrimidin-4-one] yielded an IC50 of 5.9 nM. Work on `COc1nc(-c2cccc(-c3cccc(-c4ccn5c(=O)c(CN6CC(CO)C6)cnc5c4)c3Cl)c2Cl)ccc1CN1CC(C(=O)O)C1` [Example 136, 1-((6-(2,2′-Dichloro-3′-(3-((3-(hydroxymethyl)azetidin-1-yl)methyl)-4-oxo-4H-pyrido[1,2-a]pyrimidin-8-yl)-[1,1′-biphenyl]-3-yl)-2-methoxypyridin-3-yl)methyl)azetidine-3-carboxylic acid] yielded an IC50 of 0.2 nM. For `Cc1c(COc2cc(OCc3cncc(C#N)c3)c(CN3CC[C@H](C(=O)O)C3)cc2Cl)cccc1-c1cccc(-c2ccc3c(c2)C(=O)N(C)CC(=O)N3CCN2CC[C@H](C(=O)O)C2)c1C` [Example 30, (S)-1-(4-((3′-(1-(2-((S)-3-Carboxypyrrolidin-1-yl)ethyl)-4-methyl-2,5-dioxo-2,3,4,5-tetrahydro-1H-benzo[e][1,4]diazepin-7-yl)-2,2′-dimethyl-[1,1′-biphenyl]-3-yl)methoxy)-5-chloro-2-((5-cyanopyridin-3-yl)methoxy)benzyl)pyrrolidine-3-carboxylic acid], the IC50 was 0.3 nM. `COc1nc(-c2cccc(-c3cccc(-c4cc5c(=O)n(C)c(CN6CC7(COC7)C6)nn5c4)c3Cl)c2Cl)ccc1CNC[C@@H]1CCC(=O)N1` [Example 447, 6-[2-Chloro-3-[2-chloro-3-[6-methoxy-5-[[[(2S)-5-oxopyrrolidin-2-yl]methylamino]methyl]-2-pyridyl]phenyl]phenyl]-3-methyl-2-(2-oxa-6-azaspiro[3.3]heptan-6-ylmethyl)pyrrolo[2,1-f][1,2,4]triazin-4-one] showed an IC50 of 5 nM. Work on `Cc1c(-c2ccn3c(=O)c(CNCCO)cnc3c2)cccc1-c1cccc(COc2cc(OCc3cncc(C#N)c3)c(CNCCO)cc2Cl)c1Cl` [Example 14, 5-((4-Chloro-5-((2-chloro-3′-(3-(((2-hydroxyethyl)amino)methyl)-4-oxo-4H-pyrido[1,2-a]pyrimidin-8-yl)-2′-methyl-[1,1′-biphenyl]-3-yl)methoxy)-2-(((2-hydroxyethyl)amino)methyl)phenoxy)methyl)nicotinonitrile] yielded an IC50 of 0.4 nM. `CNc1nc(-c2cccc(-c3cccc(-c4ccn5c(=O)c(CNC[C@@H]6CCC(=O)N6)cnc5c4)c3Cl)c2Cl)ccc1CNC[C@@H]1CCC(=O)N1` [Example 89, 8-(2,2′-Dichloro-3′-(6-(methylamino)-5-(((((S)-5-oxopyrrolidin-2-yl)methyl)amino)methyl)pyridin-2-yl)-[1,1′-biphenyl]-3-yl)-3-(((((S)-5-oxopyrrolidin-2-yl)methyl)amino)methyl)-4H-pyrido[1,2-a]pyrimidin-4-one] was tested, and the IC50 was 3.5 nM. `COc1nc(-c2cccc(-c3cccc(-c4ccc5c(n4)CCC[C@H]5NC[C@@H]4CCC(=O)N4)c3Cl)c2Cl)ccc1CNC[C@@H]1CCC(=O)N1` [Example 456, (S)-5-((((6-(2,2′-Dichloro-3′-((R)-5-((((S)-5-oxopyrrolidin-2-yl)methyl)amino)-5,6,7,8-tetrahydroquinolin-2-yl)-[1,1′-biphenyl]-3-yl)-2-methoxypyridin-3-yl)methyl)amino)methyl)pyrrolidin-2-one] was tested, and the IC50 was 0.2 nM. In the case of `O=C1CC[C@@H](CNCc2ccc(-c3cccc(-c4cccc(-c5ccn6c(=O)c(CNC[C@@H]7CCC(=O)N7)cnc6c5)c4Cl)c3Cl)cc2OC(F)(F)F)N1` [Example 87, 8-(2,2′-dichloro-4″-(((((S)-5-oxopyrrolidin-2-yl)methyl)amino)methyl)-3″-(trifluoromethoxy)-[1,1′:3′,1″-terphenyl]-3-yl)-3-(((((S)-5-oxopyrrolidin-2-yl)methyl)amino)methyl)-4H-pyrido[1,2-a]pyrimidin-4-one], the IC50 is reported as 2.6 nM.
